Reference: patent publication US20100311741A1, “Bicyclosulfonyl Acid (BCSA) Compounds and Their Use as Therapeutic Agents” (INHIBOX LTD., priority 2007, published 2010)

biological target: T1, Human recombinant TACE enzyme (Homo sapiens, UniProt P78536); test: TACE assay (fluorescent peptide substrate); assay type: biochemical; conditions: 3.5 h; single concentration @2 (μM); read-out: Av. TACE Inhibition, % @2
T1 construct: purchased R and D Systems, Abingdon, UK 930-ADB
Description: The activity of the compounds as TACE inhibitors was determined using a commercially available peptide substrate (M-2255, Bachem UK Ltd, St. Helens, UK) and recombinant TACE enzyme (930-ADB, R and D Systems, Abingdon, UK). Human recombinant TACE enzyme (5 ng/30 μL) was incubated for 3.5 hour at 37° C. in assay buffer (25 mM Tris.HCl, 2.5 μM ZnCl2, 0.005% Brij 35, pH 8.0) with 5 μM substrate in the presence of test compound (TACE inhibitor). The extent of TACE activity was determined by measurement of the fluorescence (excitation 355 nm, emission 460 nm).
(§1) Percent activity (% activity) for each test compound was calculated as:
(§2) % activity={(S^C−B)/(S^o−B)}×100
(§3) wherein S^C denotes signal measured in the presence of enzyme and the compound being tested, S^o denotes signal measured in the presence of enzyme but in the absence of the compound being tested, and B denotes the background signal measured in the absence of both enzyme and compound being tested. The IC50 corresponds to the concentration which achieves 50% activity.

T1 sequence (P78536 215-671 limits assumed): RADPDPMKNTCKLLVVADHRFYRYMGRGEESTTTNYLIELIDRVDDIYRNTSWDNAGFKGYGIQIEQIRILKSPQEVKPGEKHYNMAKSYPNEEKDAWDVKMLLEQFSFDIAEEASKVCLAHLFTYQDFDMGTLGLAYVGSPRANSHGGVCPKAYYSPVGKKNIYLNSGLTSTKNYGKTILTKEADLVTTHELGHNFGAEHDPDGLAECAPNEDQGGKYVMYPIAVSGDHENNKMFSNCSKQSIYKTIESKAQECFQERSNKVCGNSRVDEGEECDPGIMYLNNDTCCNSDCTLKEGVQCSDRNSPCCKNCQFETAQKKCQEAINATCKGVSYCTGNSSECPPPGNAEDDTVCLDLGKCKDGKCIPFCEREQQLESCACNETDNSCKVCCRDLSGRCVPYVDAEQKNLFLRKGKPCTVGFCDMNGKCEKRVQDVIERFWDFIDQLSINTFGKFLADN

inhibition at 2 µM | Structure (SMILES)
0% | O=C(CC1c2ccccc2S(=O)(=O)N1C1CCN(Cc2ccccc2)CC1)NO (stereo not shown) [IX-044]
10% | COc1cc2c(c(OC)c1OC)S(=O)(=O)N(c1ccccc1)C2CC(=O)NO (stereo not shown) [IX-071]
15% | COc1cc(OC)c2c(c1)C(CC(=O)NO)N(c1ccccc1)S2(=O)=O (stereo not shown) [IX-072]
32% | Cc1ccc2c(c1)S(=O)(=O)N(c1ccccc1)C2CC(=O)NO (stereo not shown) [IX-073]
10% | O=C(CC1c2ccc(Br)cc2S(=O)(=O)N1c1ccccc1)NO (stereo not shown) [IX-074]
4% | O=C(CC1c2ccc(-c3ccccc3)cc2S(=O)(=O)N1c1ccccc1)NO (stereo not shown) [IX-079]
35% | COc1cccc2c1C(CC(=O)NO)N(c1ccccc1)S2(=O)=O (stereo not shown) [IX-082]
0% | O=C(CC1c2cccc(C(F)(F)F)c2S(=O)(=O)N1c1ccccc1)NO (stereo not shown) [IX-084]
57% | Cc1cc(F)c2c(c1)C(CC(=O)NO)N(c1ccccc1)S2(=O)=O (stereo not shown) [IX-085]
20% | O=C(CC1c2c(ccc(F)c2Cl)S(=O)(=O)N1c1ccccc1)NO (stereo not shown) [IX-086]
34% | O=C(CC1c2cccc(Cl)c2S(=O)(=O)N1c1ccccc1)NO (stereo not shown) [IX-088]
0% | O=C(CC1c2c(Cl)cc(Cl)cc2S(=O)(=O)N1c1ccccc1)NO (stereo not shown) [IX-089]
10% | O=C(CC1c2ccc(C(F)(F)F)cc2S(=O)(=O)N1c1ccccc1)NO (stereo not shown) [IX-090]
13% | COc1cccc2c1S(=O)(=O)N(c1ccccc1)C2CC(=O)NO (stereo not shown) [IX-091]
23% | COc1cc(Cl)cc2c1S(=O)(=O)N(c1ccccc1)C2CC(=O)NO (stereo not shown) [IX-092]
29% | COc1ccc2c(c1Cl)C(CC(=O)NO)N(c1ccccc1)S2(=O)=O (stereo not shown) [IX-093]

same assay, conditions: 3.5 h; single concentration @100 (μM); read-out: Av. TACE Inhibition, % @100

inhibition at 100 µM | Structure (SMILES)
50% | COc1ccccc1N1C(CC(=O)NO)c2ccccc2S1(=O)=O (stereo not shown) [IX-008]
52% | COc1cccc(N2C(CC(=O)NO)c3ccccc3S2(=O)=O)c1 (stereo not shown) [IX-009]
86% | O=C(CC1c2ccccc2S(=O)(=O)N1c1cccc(Oc2ccccc2)c1)NO (stereo not shown) [IX-011]
93% | CSc1cccc(N2C(CC(=O)NO)c3ccccc3S2(=O)=O)c1 (stereo not shown) [IX-013]
81% | O=C(CC1c2ccccc2S(=O)(=O)N1c1cccc(C(F)(F)F)c1)NO (stereo not shown) [IX-014]
54% | O=C(CC1c2ccccc2S(=O)(=O)N1c1cccc(OC(F)(F)F)c1)NO (stereo not shown) [IX-015]
97% | O=C(CC1c2ccccc2S(=O)(=O)N1c1cccc(-c2ccccc2)c1)NO (stereo not shown) [IX-017]
55% | O=C(CC1c2ccccc2S(=O)(=O)N1c1ccc(C(F)(F)F)cc1)NO (stereo not shown) [IX-019]
50% | CC(C)c1ccc(N2C(CC(=O)NO)c3ccccc3S2(=O)=O)cc1 (stereo not shown) [IX-024]
54% | O=C(CC1c2ccccc2S(=O)(=O)N1c1ccc(-n2cncn2)cc1)NO (stereo not shown) [IX-030]
70% | O=C(CC1c2ccccc2S(=O)(=O)N1c1ccc(-c2cnco2)cc1)NO (stereo not shown) [IX-031]
36% | O=C(CC1c2ccccc2S(=O)(=O)N1c1ccc(N2CCOCC2)cc1)NO (stereo not shown) [IX-034]
28% | O=C(CC1NS(=O)(=O)c2ccccc21)NO (stereo not shown) [IX-039]
28% | CN1C(CC(=O)NO)c2ccccc2S1(=O)=O (stereo not shown) [IX-040]
81% | CN(C)CCOc1ccc(N2C(CC(=O)NO)c3ccccc3S2(=O)=O)cc1 (stereo not shown) [IX-051]
53% | O=C(CC1c2ccccc2S(=O)(=O)N1c1ccc(OCCN2CCOCC2)cc1)NO (stereo not shown) [IX-052]
64% | O=C(CC1c2ccccc2S(=O)(=O)N1c1cccc(CO)c1)NO (stereo not shown) [IX-075]
26% | O=C(CCC1c2ccccc2S(=O)(=O)N1c1ccccc1)NO (stereo not shown) [IX-094]
38% | O=C(NO)C1c2ccccc2S(=O)(=O)N1c1ccccc1 (stereo not shown) [IX-095]
27% | O=C(NO)C1c2c(Cl)cccc2S(=O)(=O)N1c1ccccc1 (stereo not shown) [IX-096]
9% | O=C(O)CC1c2ccccc2S(=O)(=O)N1c1ccccc1 (stereo not shown) [IX-099]
50% | CC#CCOc1ccc(N2C(CC(=O)O)c3ccccc3S2(=O)=O)cc1 (stereo not shown) [IX-100]

tested on: not given; test: not given; conditions: not given

melting point | Structure (SMILES)
218 to 220 °C (dec.) | O=C(CC1c2ccccc2S(=O)(=O)N1c1ccc(OCc2ccnc3ccccc23)cc1)NO (stereo not shown) [Compound (5.57), 2-{1,1-Dioxo-2-[4-(quinolin-4-ylmethoxy)phenyl]-2,3-dihydro-1H-benzo[d]isothiazol-3-yl}-N-hydroxyacetamide]
> 140 °C (dec.) | Cc1cc(COc2ccc(N3C(CC(=O)NO)c4ccccc4S3(=O)=O)cc2)c2cc(F)ccc2n1 (stereo not shown) [Compound (5.58), 2-{2-[4-(6-Fluoro-2-methyl-quinolin-4-ylmethoxy)-phenyl]-1,1-dioxo-2,3-dihydro-1H-benzo[d]isothiazol-3-yl}-N-hydroxyacetamide]
> 215 °C (dec.) | Cc1cc(COc2ccc(N3C(CC(=O)NO)c4ccccc4S3(=O)=O)cc2)c2cc(Cl)ccc2n1 (stereo not shown) [Compound (5.59), 2-{2-[4-(6-Chloro-2-methylquinolin-4-ylmethoxy)-phenyl]-1,1-dioxo-2,3-dihydro-1H-benzo[d]isothiazol-3-yl}-N-hydroxyacetamide]
> 204 °C (dec.) | Cc1cc(COc2ccc(N3C(CC(=O)NO)c4ccccc4S3(=O)=O)cc2)ccn1 (stereo not shown) [Compound (5.60), 2-{2-[4-(2-Methyl-pyridin-4-ylmethoxy)-phenyl]-1,1-dioxo-2,3-dihydro-1H-benzo[d]isothiazol-3-yl}-N-hydroxyacetamide]
> 210 °C (dec.) | Cc1cc(COc2ccc(N3C(CC(=O)NO)c4ccccc4S3(=O)=O)cc2)cc(C)n1 (stereo not shown) [Compound (5.61), 2-{2-[4-(2,6-Dimethyl-pyridin-4-ylmethoxy)phenyl]-1,1-dioxo-2,3-dihydro-1H-benzo[d]isothiazol-3-yl}-N-hydroxyacetamide]
180 to 182 °C | COc1ccc2c(c1)C(CC(=O)NO)N(c1ccccc1)S2(=O)=O (stereo not shown) [Compound (5.62), 2-(5-Methoxy-1,1-dioxo-2-phenyl-2,3-dihydro-1H-benzo[d]isothiazol-3-yl)-N-hydroxyacetamide]
202 to 204 °C (dec.) | O=C(CC1c2cc3c(cc2S(=O)(=O)N1c1ccccc1)OCCO3)NO (stereo not shown) [Compound (5.63), 2-(1,1-Dioxo-2-phenyl-2,3,6,7-tetrahydro-1H-5,8-dioxa-thia-2-aza-cyclopenta[b]naphthalen-3-yl)-N-hydroxyacetamide]
197 to 199 °C (dec.) | COc1cc2c(cc1OC)S(=O)(=O)N(c1ccccc1)C2CC(=O)NO (stereo not shown) [Compound (5.64), 2-(5,6-Dimethoxy-1,1-dioxo-2-phenyl-2,3-dihydro-1H-benzo[d]isothiazol-3-yl)-N-hydroxyacetamide]
182 to 183 °C | O=C(CC1c2ccc(Br)cc2S(=O)(=O)N1c1ccccc1)NO (stereo not shown) [Compound (5.68), 2-(6-Bromo-1,1-dioxo-2-phenyl-2,3-dihydro-1H-benzo[d]isothiazol-3-yl)-N-hydroxyacetamide]
178 to 179 °C (dec.) | O=C(O)CC1c2ccccc2S(=O)(=O)N1c1ccccc1 (stereo not shown) [IX-099]
160 to 161 °C | CC#CCOc1ccc(N2C(CC(=O)O)c3ccccc3S2(=O)=O)cc1 (stereo not shown) [IX-100]

tested on: HDAC (HeLa cell extract); test: Selectivity assay: HDAC activity, fluorescent assay (Fluor de Lys); assay type: biochemical; conditions: 15 μM acetylated substrate, 1 hour at 37° C., read-out: Av. HDAC Inhibition EC50
Description: Alternatively, the activity of the compounds as HDAC inhibitors was determined using a commercially available fluorescent assay kit (Fluor de Lys™, BioMol Research Labs, Inc., Plymouth Meeting, USA). HeLa extract was incubated for 1 hour at 37° C. in assay buffer (25 mM HEPES, 137 mM NaCl, 2.7 mM KCl, 1 mM MgCl2, pH 8.0) with 15 μM acetylated substrate in the presence of test compound (HDAC inhibitor). The extent of deacetylation was determined by the addition of 50 μL of a 1-in-500 dilution of Developer, and subsequent measurement of the fluorescence (excitation 355 nm, emission 460 nm), according to the instructions provided with the kit.
The HeLa cell extract was made from HeLa cells (ATCC Ref. No. CCL-2) by freeze-thawing three times in 60 mM Tris.HCl, pH 8.0, 450 mM NaCl, 30% glycerol. Two cell volumes of extraction buffer were used, and particulate material was centrifuged out (20,800 g, 4° C., 10 minutes). The supernatant extract having deacetylase activity was aliquoted and frozen for storage.
as §1, §2, §3

EC50 | Structure (SMILES)
23.7 µM | CCOc1ccc2c(c1)C(CC(=O)NO)N(c1ccccc1)S2(=O)=O (stereo not shown) [IX-078]

same assay, conditions: single concentration @100 (μM)

Structure (SMILES) | Av. HDAC Inhibition, % @100
O=C(C[C@H]1c2ccccc2S(=O)(=O)N1c1ccccc1)NO [IX-002] | 43%@100
O=C(C[C@@H]1c2ccccc2S(=O)(=O)N1c1ccccc1)NO [IX-003] | 44%@100
O=C(CC1c2ccccc2S(=O)(=O)N1c1ccc2ccccc2c1)NO (stereo not shown) [IX-004] | 32%@100
COc1cccc(N2C(CC(=O)NO)c3ccccc3S2(=O)=O)c1 (stereo not shown) [IX-009] | 24%@100
COc1ccc(N2C(CC(=O)NO)c3ccccc3S2(=O)=O)cc1 (stereo not shown) [IX-010] | 17%@100
O=C(CC1c2ccccc2S(=O)(=O)N1c1ccc(Cl)cc1)NO (stereo not shown) [IX-012] | 11%@100
O=C(CC1c2ccccc2S(=O)(=O)N1c1ccc(OC(F)(F)F)cc1)NO (stereo not shown) [IX-020] | −2%@100
CCCCOc1ccc(N2C(CC(=O)NO)c3ccccc3S2(=O)=O)cc1 (stereo not shown) [IX-036] | −4%@100
COc1ccc2c(c1)C(CC(=O)NO)N(c1ccccc1)S2(=O)=O (stereo not shown) [IX-068] | 44%@100
O=C(CC1c2ccccc2S(=O)(=O)N1c1cccc(CO)c1)NO (stereo not shown) [IX-075] | 2%@100
O=C(C[C@@H]1c2ccccc2S(=O)(=O)[C@H]1c1ccccc1)NO [IX-097] | 20%@100
